{"source": "ChEMBL document CHEMBL3596187", "about": "“Design and synthesis of membrane-targeting antibiotics: from peptides- to aminosugar-based antimicrobial cationic amphiphiles” (2014)", "format_in_all_cases": "functional", "key": {"Porphyromonas gingivalis": {"tested_on": "Porphyromonas gingivalis", "assay": "Antimicrobial activity against protease-positive Porphyromonas gingivalis by agar dilution method"}, "[1]": {"tested_on": "Porphyromonas cangingivalis", "assay": "Antimicrobial activity against protease-positive Porphyromonas cangingivalis by agar dilution method"}, "[2]": {"tested_on": "Porphyromonas circumdentaria", "assay": "Antimicrobial activity against protease-positive Porphyromonas circumdentaria by agar dilution method"}, "Streptococcus mutans": {"tested_on": "Streptococcus mutans", "assay": "Antimicrobial activity against Streptococcus mutans by agar dilution method"}, "Staphylococcus": {"tested_on": "Staphylococcus", "assay": "Antimicrobial activity against Staphylococci"}, "Escherichia coli": {"tested_on": "Escherichia coli", "assay": "Antimicrobial activity against Escherichia coli after 18 to 24 hrs by geometric microdilution method"}, "Klebsiella pneumoniae": {"tested_on": "Klebsiella pneumoniae", "assay": "Antimicrobial activity against Klebsiella pneumoniae after 18 to 24 hrs by geometric microdilution method"}, "Acinetobacter lwoffii": {"tested_on": "Acinetobacter lwoffii", "assay": "Antimicrobial activity against Acinetobacter lwoffii after 18 to 24 hrs by geometric microdilution method"}, "Pseudomonas aeruginosa": {"tested_on": "Pseudomonas aeruginosa", "assay": "Antimicrobial activity against Pseudomonas aeruginosa after 18 to 24 hrs by geometric microdilution method"}}, "data": [{"smiles": "CCCCCCCCNCCC[C@@H](C)[C@H]1CC[C@H]2[C@@H]3[C@H](OCCCN)C[C@@H]4C[C@H](OCCCN)CC[C@]4(C)[C@H]3C[C@H](OCCCN)[C@]12C", "values": [{"measurement": "MIC", "setting": "Porphyromonas gingivalis", "result": 2, "unit": "µg/mL"}, {"measurement": "MIC", "setting": "[1]", "result": 2, "unit": "µg/mL"}, {"measurement": "MIC", "setting": "[2]", "result": 1, "unit": "µg/mL"}, {"measurement": "MIC", "setting": "Streptococcus mutans", "result": 1, "unit": "µg/mL"}]}, {"smiles": "CCN(CC)CCCCOc1cc2oc3cc(OCCCCN(CC)CC)c(OC)c(CC=C(C)C)c3c(=O)c2c(O)c1CC=C(C)C", "values": [{"measurement": "MIC", "setting": "Staphylococcus", "result": 0.095, "unit": "µg/mL"}]}, {"smiles": "NC[C@H]1O[C@H](O[C@H]2[C@H](O)[C@@H](OCc3ccc4ccccc4c3)[C@H](N)C[C@@H]2N)[C@H](N)[C@@H](OCc2ccc3ccccc3c2)[C@@H]1OCc1ccc2ccccc2c1", "values": [{"measurement": "MIC", "setting": "Escherichia coli", "result": 2, "unit": "µg/mL"}, {"measurement": "MIC", "setting": "Klebsiella pneumoniae", "result": 2, "unit": "µg/mL"}, {"measurement": "MIC", "setting": "Acinetobacter lwoffii", "result": 2, "unit": "µg/mL"}, {"measurement": "MIC", "setting": "Pseudomonas aeruginosa", "result": 2, "unit": "µg/mL"}]}]}
